Data published in patent US20250025473A1 (priority 2021, published 2025).
pIC50: −log10 of the molar value. Counter-ions that a name gives are not always drawn.

Assays:
[1] = test system: phosphatidylserine (PtdS) and Akt; test: Translocation of PtdS and Akt to the outer leaflet after HSV-2 (confocal, non-permeabilized); type: cell-based, human; details: HaCat, HSV-2(G)
PLSCR1 [2] = test: PLSCR1 phosphorylation after HSV-2 (immunoprecipitation/Western); type: cell-based, human; details: 10 μM, HaCat, 30 minutes
HaCat cells = test: Cytotoxicity/viability, confluent HaCat cells; type: cell-based, human; details: 10 μM
Experimental: Results are presented as mean±SEM odu as a percentage of the DMSO control (n=2 independent experiments each conducted in duplicate for C and 1 experiment conducted in duplicate for D). Results in B-D were compared by ANOVA, *p<0.05, **p<0.01, ***p<0.001, ****p<0.0001).
Cell proliferation and viability were determined using the Cell Titer 96® Aqueous One Solution and optical density was determined using a SpectraMax® M5e Molecular Devices multidetection microplate reader. […] The cells were then fixed and stained for activated caspases (red) and SYTOX Green (for integrity of plasma membrane) by Image-iT™ LIVE red Poly Caspase Detection kit. Nuclei were stained with Hoechst. Images were acquired by laser confocal microscope ZeissLive/DuoScan equipped with oil immersion objectives 63×1.1 and captured in an optical slice of 0.37 μm with appropriate filters. Alternatively, immunoblots were prepared and probed with antibodies to cleaved PARP-1 or cleaved caspase 8.

PLSCR1 [3] = type: cell-based, monkey; details: Vero, 30 minutes; drugs 10 μM each
HSV-1 K26GFP = test: HSV capsid entry, GFP+ cells by confocal imaging; details: HaCat, 4 h post-temperature shift; CIMSS 10 μM, anti-Akt 2 μg/ml, cycloheximide 10 μg/ml
panel of 393 kinases [4] = biological target: T1, panel of 393 kinases (Homo sapiens, UniProt Q13131); test: biochemical; details: control compound
T1 construct: purchased Reaction Biology Corporation
T1 sequence (Q13131 whole entry): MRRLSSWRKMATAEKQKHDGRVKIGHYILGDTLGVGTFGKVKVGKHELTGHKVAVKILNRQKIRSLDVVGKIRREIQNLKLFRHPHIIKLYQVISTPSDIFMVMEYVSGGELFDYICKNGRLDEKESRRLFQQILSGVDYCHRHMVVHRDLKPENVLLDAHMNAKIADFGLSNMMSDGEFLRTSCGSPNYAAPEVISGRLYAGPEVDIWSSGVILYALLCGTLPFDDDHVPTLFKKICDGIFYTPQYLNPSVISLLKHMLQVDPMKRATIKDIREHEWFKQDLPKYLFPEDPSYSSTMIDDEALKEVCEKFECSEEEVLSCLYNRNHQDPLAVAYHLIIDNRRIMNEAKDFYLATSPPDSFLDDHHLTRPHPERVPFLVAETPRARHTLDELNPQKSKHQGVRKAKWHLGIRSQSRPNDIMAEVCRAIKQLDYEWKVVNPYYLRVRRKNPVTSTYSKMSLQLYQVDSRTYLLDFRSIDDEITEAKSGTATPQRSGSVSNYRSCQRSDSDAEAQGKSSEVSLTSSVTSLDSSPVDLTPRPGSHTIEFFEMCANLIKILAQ

panel of 393 kinases [5] = biological target: T2, panel of 393 kinases (Homo sapiens, UniProt P54646); test: biochemical; details: control compound
T2 construct: purchased Reaction Biology Corporation
T2 sequence (P54646 whole entry): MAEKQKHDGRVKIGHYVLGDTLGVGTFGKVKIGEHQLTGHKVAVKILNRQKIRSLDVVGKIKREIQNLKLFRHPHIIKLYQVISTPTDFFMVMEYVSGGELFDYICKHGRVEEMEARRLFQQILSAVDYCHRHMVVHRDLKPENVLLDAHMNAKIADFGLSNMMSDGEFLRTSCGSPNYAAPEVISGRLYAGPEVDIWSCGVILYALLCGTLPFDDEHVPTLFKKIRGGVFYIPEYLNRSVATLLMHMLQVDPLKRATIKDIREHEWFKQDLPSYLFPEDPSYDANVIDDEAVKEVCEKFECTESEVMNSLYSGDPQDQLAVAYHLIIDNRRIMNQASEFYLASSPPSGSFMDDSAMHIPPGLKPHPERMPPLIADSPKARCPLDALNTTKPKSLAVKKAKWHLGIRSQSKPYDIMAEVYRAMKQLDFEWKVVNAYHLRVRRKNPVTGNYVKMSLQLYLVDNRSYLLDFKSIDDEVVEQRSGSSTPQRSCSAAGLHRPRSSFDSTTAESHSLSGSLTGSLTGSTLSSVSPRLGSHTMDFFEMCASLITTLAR

panel of 393 kinases [6] = biological target: T3, panel of 393 kinases (Homo sapiens, UniProt Q9BQI3); test: biochemical
T3 construct: purchased Reaction Biology Corporation
T3 sequence (Q9BQI3 whole entry): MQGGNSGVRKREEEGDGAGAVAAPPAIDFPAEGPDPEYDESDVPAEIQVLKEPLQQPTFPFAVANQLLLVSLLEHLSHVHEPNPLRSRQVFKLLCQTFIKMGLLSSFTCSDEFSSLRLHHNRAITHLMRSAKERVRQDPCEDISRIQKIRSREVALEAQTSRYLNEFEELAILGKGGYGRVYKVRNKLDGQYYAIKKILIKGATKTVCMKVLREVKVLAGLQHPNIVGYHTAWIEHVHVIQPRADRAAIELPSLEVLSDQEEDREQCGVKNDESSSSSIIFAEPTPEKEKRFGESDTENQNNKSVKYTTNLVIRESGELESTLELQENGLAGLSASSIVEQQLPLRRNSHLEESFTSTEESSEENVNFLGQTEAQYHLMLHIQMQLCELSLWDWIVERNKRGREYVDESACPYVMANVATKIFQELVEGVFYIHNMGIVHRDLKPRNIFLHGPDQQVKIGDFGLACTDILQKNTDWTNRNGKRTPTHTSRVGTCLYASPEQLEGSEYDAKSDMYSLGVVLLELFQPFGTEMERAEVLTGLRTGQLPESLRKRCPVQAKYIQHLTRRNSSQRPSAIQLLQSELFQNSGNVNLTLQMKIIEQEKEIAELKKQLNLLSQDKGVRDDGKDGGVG

[7] = Parallel artificial membrane permeability assay (PAMPA); type: in vitro ADME
MDCK-MDR1 cells = details: 5 μM
panel of 393 kinases [8] = biological target: T4, panel of 393 kinases (Homo sapiens, UniProt Q15118); test: biochemical; details: kinase PDK1/PDHK1; control compound
T4 construct: purchased Reaction Biology Corporation
T4 sequence (Q15118 29-436): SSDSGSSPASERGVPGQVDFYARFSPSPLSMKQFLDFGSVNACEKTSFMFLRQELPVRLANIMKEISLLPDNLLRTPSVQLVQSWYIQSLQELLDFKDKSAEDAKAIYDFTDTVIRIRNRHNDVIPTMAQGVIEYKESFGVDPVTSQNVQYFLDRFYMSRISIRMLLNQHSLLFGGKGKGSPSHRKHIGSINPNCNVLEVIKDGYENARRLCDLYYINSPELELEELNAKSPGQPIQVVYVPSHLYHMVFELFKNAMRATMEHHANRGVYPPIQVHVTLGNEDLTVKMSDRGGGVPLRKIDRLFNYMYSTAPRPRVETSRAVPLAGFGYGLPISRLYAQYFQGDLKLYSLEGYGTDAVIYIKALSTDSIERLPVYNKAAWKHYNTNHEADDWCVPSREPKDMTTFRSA

panel of 393 kinases [9] = biological target: T5, panel of 393 kinases (Homo sapiens, UniProt Q16654); test: biochemical; details: kinase PDK4/PDHK4; control compound
T5 construct: purchased Reaction Biology Corporation
T5 sequence (Q16654 whole entry): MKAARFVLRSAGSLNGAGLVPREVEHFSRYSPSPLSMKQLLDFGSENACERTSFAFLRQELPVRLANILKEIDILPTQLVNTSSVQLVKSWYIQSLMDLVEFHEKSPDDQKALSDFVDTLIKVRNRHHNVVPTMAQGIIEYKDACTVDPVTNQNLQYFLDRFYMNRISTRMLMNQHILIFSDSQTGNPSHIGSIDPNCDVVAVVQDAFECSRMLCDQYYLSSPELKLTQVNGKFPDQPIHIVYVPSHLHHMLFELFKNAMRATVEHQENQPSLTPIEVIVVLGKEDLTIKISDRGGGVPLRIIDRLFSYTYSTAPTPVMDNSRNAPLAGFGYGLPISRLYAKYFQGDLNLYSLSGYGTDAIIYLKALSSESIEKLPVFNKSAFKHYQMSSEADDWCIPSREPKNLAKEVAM

panel of 393 kinases [10] = biological target: T6, panel of 393 kinases (Homo sapiens, UniProt Q15119); test: biochemical; details: kinase PDK2/PDHK2; control compound
T6 construct: purchased Reaction Biology Corporation

panel of 393 kinases [11] = biological target: T7, panel of 393 kinases (Homo sapiens, UniProt Q15120); test: biochemical; details: kinase PDK3/PDHK3; control compound
T7 construct: purchased Reaction Biology Corporation
T7 sequence (Q15120 whole entry): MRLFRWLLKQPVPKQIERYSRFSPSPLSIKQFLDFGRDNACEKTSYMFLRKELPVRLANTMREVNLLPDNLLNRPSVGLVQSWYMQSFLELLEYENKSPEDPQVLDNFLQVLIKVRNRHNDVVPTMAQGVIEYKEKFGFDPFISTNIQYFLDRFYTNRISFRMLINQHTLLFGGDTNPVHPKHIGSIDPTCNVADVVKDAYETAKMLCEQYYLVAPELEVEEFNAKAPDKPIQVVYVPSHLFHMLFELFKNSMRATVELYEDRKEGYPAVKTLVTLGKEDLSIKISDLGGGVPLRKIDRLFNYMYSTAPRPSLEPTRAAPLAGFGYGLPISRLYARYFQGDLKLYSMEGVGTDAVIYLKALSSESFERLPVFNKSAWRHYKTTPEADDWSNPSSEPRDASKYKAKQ

panel of 393 kinases [12] = biological target: T8, panel of 393 kinases (Homo sapiens, UniProt Q96QT4); test: biochemical; details: kinase TRPM7/CHAK1; control compound
T8 construct: purchased Reaction Biology Corporation
T8 sequence (Q96QT4 whole entry): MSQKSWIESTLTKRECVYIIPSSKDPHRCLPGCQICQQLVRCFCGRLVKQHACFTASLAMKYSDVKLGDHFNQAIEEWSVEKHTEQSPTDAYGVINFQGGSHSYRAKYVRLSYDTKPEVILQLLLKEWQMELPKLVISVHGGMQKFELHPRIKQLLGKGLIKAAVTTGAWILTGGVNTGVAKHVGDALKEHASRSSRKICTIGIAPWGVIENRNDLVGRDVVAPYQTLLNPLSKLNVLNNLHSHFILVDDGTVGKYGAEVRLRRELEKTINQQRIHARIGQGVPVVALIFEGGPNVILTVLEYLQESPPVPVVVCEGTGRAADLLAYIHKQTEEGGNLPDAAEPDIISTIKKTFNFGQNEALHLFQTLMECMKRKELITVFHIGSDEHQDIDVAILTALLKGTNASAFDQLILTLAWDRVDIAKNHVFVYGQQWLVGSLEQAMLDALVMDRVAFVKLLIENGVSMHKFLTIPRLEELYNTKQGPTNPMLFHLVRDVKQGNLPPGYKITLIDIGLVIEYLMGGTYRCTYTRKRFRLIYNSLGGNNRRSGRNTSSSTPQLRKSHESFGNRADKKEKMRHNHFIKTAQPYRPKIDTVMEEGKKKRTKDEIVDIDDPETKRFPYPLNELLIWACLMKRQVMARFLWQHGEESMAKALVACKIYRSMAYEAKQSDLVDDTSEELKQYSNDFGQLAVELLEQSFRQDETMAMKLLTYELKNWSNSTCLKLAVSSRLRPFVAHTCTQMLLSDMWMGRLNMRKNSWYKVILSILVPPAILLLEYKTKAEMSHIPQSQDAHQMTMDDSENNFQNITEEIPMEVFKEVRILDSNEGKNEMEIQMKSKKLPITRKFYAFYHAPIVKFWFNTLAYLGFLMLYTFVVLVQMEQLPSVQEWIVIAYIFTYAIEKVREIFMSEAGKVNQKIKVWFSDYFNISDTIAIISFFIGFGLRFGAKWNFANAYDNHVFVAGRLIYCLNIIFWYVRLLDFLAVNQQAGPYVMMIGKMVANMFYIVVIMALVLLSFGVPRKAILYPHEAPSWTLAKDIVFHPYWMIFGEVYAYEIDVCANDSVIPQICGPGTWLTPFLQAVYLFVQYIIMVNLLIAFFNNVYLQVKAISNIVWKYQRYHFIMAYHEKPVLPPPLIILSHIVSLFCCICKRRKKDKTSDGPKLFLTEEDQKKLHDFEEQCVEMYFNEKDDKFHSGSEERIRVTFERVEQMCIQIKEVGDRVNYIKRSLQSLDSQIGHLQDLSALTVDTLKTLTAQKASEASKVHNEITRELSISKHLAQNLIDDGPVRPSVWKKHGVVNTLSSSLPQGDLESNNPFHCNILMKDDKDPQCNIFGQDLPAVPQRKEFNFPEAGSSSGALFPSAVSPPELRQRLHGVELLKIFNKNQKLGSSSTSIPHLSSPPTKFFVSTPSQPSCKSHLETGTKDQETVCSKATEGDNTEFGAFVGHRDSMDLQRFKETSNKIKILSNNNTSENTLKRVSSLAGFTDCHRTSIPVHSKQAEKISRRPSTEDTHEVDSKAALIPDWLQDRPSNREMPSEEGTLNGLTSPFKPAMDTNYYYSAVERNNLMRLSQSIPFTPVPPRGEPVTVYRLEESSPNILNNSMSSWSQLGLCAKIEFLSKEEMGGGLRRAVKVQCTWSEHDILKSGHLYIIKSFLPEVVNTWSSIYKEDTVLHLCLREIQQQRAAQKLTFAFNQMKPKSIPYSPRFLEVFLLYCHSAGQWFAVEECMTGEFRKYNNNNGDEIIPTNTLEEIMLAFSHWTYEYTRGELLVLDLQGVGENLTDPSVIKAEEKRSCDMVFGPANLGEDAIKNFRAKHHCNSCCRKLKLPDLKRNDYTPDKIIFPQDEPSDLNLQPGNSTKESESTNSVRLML

[13] = test system: VSV-S (VSV pseudotyped with SARS-CoV-2 spike protein); type: cell-based

CN[C@@H]1C[C@H]2O[C@@](C)([C@@H]1OC)n1c3ccccc3c3c4c(c5c6ccccc6n2c5c31)C(=O)NC4 [Staurosporine, (9S,10R,11R,13R)-2,3,10,11,12,13-hexahydro-10-methoxy-9-methyl-11-(methylamino)-9,13-epoxy-1H,9H-diindolo[1,2,3-gh:3′,2′,1′-lm]pyrrolo[3,4-j][1,7]benzodiazonin-1-one, reference compound]
translocation of PtdS and Akt to the outer leaflet of the plasma membrane ([1]; 10 μM): inhibited
phosphorylation of PLSCR1 after HSV-2 (PLSCR1 [2]): inhibited
cytotoxicity (HaCat cells; confluent HaCat, 72 and 120 hours of exposure): completely cytotoxic
cytotoxicity (HaCat cells; fully confluent HaCat cells, up to 120 h): cytotoxic within 24 h
phosphorylation of PLSCR1 after VSV-S (PLSCR1 [3]): inhibited

C[C@@H]1C[C@@H]([C@H](O)CC2CC(=O)NC(=O)C2)C(=O)[C@@H](C)C1 [cycloheximide, reference compound]
percentage of GFP+ cells (HSV-1 K26GFP): significantly reduced

Ro-31-8220
IC50 (panel of 393 kinases [4]; kinase AMPK(A1/B1/G1)): 66.8 nM
IC50 (panel of 393 kinases [4]; kinase AMPK(A1/B1/G2)): 76.8 nM
IC50 (panel of 393 kinases [4]; kinase AMPK(A1/B1/G3)): 179 nM
IC50 (panel of 393 kinases [4]; kinase AMPK(A1/B2/G1)): 116 nM
IC50 (panel of 393 kinases [5]; kinase AMPK (A2/B1/G3)): 296 nM
IC50 (panel of 393 kinases [5]; kinase AMPK(A2/B1/G1)): 212 nM
IC50 (panel of 393 kinases [5]; kinase AMPK(A2/B2/G1)): 97.8 nM
IC50 (panel of 393 kinases [5]; kinase AMPK(A2/B2/G2)): 100 nM
IC50 (panel of 393 kinases [5]; kinase AMPK(A2/B2/G3)): 186 nM

Apyrase
detection of PtdS or PLSCR1 at the outer leaflet ([1]; 10 U/ml): no discernible effect

Cn1cc(-c2ccc3c(c2)CCN3C(=O)Cc2cccc(C(F)(F)F)c2)c2c(N)ncnc21 [GSK-2606414]
pIC50 (panel of 393 kinases [6]): 7.02

CC(C)NCC(O)COc1cccc2ccccc12 (stereo not drawn) [Propranolol]
Recover %, PAMPA ([7]; 100 μM): 85%
Papp, PAMPA ([7]; 100 μM in PBS pH 7.4, 5 hours, room temperature): 8.991 ×10⁻⁶ cm/s
Recover %, MDCK Transport (MDCK-MDR1 cells): 93%

O=C1Nc2ccc(I)cc2/C1=C/c1cc(Br)c(O)c(Br)c1 [GW5074]
IC50 (panel of 393 kinases [8]): 8630 nM
IC50 (panel of 393 kinases [9]): 1890 nM
IC50 (panel of 393 kinases [10]): 5050 nM
IC50 (panel of 393 kinases [11]): 2570 nM

CCCCCCCCCCCCCCCCn1cc[n+](Cc2ccccc2)c1C [NH125]
IC50 (panel of 393 kinases [12]): 23400 nM

C[C@H]1O[C@@H](O[C@H]2[C@@H](O)C[C@H](O[C@H]3[C@@H](O)C[C@H](O[C@H]4CC[C@@]5(C)[C@H](CC[C@@H]6[C@@H]5C[C@@H](O)[C@]5(C)[C@@H](C7=CC(=O)OC7)CC[C@]65O)C4)O[C@@H]3C)O[C@@H]2C)C[C@H](O)[C@@H]1O [Digoxin]
Recover %, MDCK Transport (MDCK-MDR1 cells): 96%

CN(C)C(=O)COC(=O)Cc1ccc(OC(=O)c2ccc(NC(=N)N)cc2)cc1 [camostat mesylate, reference compound]
VSV-S infection (plaques or viral yields) [13]: inhibited
